In US7087623B2, “Thiazole and other heterocyclic ligands for mammalian dopamine, muscarinic and serotonin receptors and transporters, and methods of use thereof” (Sepracor Inc., priority 2001, dated 2006):
pIC50: −log10 of the molar value. Read-outs that look alike come from different tables or passages of the source.

Tests used:
[1] = target: T1, human serotonin 5-HT6 receptor (Homo sapiens, UniProt P50406); assay: Radioligand binding assay, human 5-HT6 receptors ([3H]LSD)
T1 construct: expressed in transfected cells; host or cells: HeLa/E6-7
T1 sequence (P50406 whole entry): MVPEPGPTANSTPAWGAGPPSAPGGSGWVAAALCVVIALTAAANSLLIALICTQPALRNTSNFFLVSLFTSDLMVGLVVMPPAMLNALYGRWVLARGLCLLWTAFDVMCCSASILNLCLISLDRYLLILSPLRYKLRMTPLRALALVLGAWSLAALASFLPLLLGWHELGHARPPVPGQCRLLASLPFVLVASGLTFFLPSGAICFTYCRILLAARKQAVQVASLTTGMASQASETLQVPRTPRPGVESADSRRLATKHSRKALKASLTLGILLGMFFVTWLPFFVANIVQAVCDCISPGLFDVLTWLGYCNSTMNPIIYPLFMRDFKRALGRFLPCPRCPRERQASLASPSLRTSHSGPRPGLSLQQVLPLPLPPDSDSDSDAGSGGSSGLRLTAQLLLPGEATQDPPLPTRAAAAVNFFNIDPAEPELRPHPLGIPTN
Description: (§1) The human 5-HT2a and 5-HT2b screens were conducted according to Bonhaus, D. W. et al. Br. J. Pharmacol. 1995, 115, 622. The human 5-HT2c screen was conducted according to Wolf, W. A. et al. J. Neurochem. 1997, 69, 1449. The human 5-HT6 screen was conducted according to Monsma, F. J. et al. Mol. Pharmacol. 1993, 43, 320.
This assay measures binding of [^3H]LSD (lysergic acid diethylamide) to human serotonin 5-HT6 receptors. HeLa/E6–7 cells stably transfected with a plasmid encoding the human serotonin 5-HT6 receptor were used to prepare membranes in modified Tris-HCl pH 7.4 buffer using standard techniques. A 30 μg aliquot of membrane was incubated with 1.5 nM [^3H]LSD for 120 minutes at 37° C. Non-specific binding was estimated in the presence of 5 μM 5-HT. Membranes were filtered and washed 3 times and the filters were counted to determine [^3H]LSD specifically bound. See Monsma, Jr., F. J. et al. “Cloning and expression of a novel serotonin receptor with high affinity for tricyclic psychotropic drugs” Mol. Pharmacol. 43: 320–327, 1993.
(§2) The human 5-HT2a and 5-HT2b screens were conducted according to Bonhaus, D. W. et al. Br. J. Pharmacol. 1995, 115, 622. The human […], W. A. et al. J. Neurochem. 1997, 69, 1449. The human 5-HT6 screen was conducted according to Monsama, F. J. et al. Mol. Pharmacol. 1993, 43, 320. The assay to human D3 receptors was conducted according to Sokoloff, P. et al. Nature 1990, 347;146. The human dopamine transporter assay was conducted according to Gu, H. et. al. J. Biol. Chem. 1994, 269 (10);7124; and Giros, B. et al. Trends. Pharmacol. Sci. 1993, 14: 43. The human muscarinic M1–M4 screens were conducted according to Buckley N. J. et al. Mol. Pharmacol. 1989, 35:469.

[2] = target: T2, human dopamine D3 receptor (Homo sapiens, UniProt P35462); assay: Radioligand binding assay, human dopamine D3 receptors ([3H]Spiperone)
T2 construct: expressed in transfected cells; host or cells: CHO
T2 sequence (P35462 whole entry): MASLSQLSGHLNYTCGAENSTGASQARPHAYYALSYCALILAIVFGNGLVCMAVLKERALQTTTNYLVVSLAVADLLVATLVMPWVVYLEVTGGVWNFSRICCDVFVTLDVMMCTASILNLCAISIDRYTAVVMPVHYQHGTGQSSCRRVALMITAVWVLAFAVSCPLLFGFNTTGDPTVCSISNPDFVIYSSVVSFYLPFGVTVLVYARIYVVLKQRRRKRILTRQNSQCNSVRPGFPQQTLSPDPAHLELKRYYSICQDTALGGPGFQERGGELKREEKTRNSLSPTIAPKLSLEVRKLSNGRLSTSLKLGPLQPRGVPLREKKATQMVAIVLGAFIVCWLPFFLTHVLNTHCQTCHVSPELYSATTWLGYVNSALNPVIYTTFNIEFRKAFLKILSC
Description: The assay for binding to human D3 receptors was conducted according to Sokoloff, P. et al. Nature 1990, 347, 146.
CHO cells stably transfected with a plasmid encoding the human dopamine D3 receptor were used to prepare membranes in modified Tris-HCl pH 7.4 buffer using standard techniques. […] Non-specific binding was estimated in the presence of 25 μM S-(−)-sulpiride. […] See Sokoloff, P. et al. “Molecular cloning and characterization of a novel dopamine receptor (D3) as a target for neuroleptics” Nature 347: 146–151, 1990.
as §2

[3] = target: T3, human dopamine transporter (Homo sapiens, UniProt Q01959); assay: Binding to human dopamine transporter ([125I]RTI-55); details: human; Example 100 table; read-out: IC50 (nM) DAT
T3 construct: expressed in transfected cells; host or cells: CHO-K1
T3 sequence (Q01959 whole entry): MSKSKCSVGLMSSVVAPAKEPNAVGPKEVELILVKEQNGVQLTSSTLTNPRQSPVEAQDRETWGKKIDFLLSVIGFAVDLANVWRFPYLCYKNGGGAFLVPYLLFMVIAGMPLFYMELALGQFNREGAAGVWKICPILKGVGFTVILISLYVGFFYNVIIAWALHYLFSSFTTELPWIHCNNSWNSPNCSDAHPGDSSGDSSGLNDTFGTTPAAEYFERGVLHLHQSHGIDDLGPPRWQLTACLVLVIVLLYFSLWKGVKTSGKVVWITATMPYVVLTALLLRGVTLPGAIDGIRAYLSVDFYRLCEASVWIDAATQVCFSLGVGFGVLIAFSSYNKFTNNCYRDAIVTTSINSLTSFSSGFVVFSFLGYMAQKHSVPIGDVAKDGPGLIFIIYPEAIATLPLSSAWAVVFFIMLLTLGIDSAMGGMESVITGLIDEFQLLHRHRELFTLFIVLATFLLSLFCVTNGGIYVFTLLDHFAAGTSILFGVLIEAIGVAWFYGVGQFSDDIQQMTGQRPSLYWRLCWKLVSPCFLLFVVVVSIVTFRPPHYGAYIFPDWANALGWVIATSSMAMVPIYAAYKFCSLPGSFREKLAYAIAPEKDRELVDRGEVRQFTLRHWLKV
Description: CHO-K1 cell membranes stably transfected with a plasmid encoding the human dopamine transporter were prepared in modified Tris-HCl pH 7.4 buffer using standard techniques. […] Non-specific binding was estimated in the presence of 10 μM nomifensine. […] Trends. […]

[4] = target: T4, human serotonin 5-HT2A receptor (Homo sapiens, UniProt P28223); assay: Radioligand binding assay, human 5-HT2A receptors ([3H]Ketanserin)
T4 construct: expressed in transfected cells; host or cells: CHO-K1
T4 sequence (P28223 whole entry): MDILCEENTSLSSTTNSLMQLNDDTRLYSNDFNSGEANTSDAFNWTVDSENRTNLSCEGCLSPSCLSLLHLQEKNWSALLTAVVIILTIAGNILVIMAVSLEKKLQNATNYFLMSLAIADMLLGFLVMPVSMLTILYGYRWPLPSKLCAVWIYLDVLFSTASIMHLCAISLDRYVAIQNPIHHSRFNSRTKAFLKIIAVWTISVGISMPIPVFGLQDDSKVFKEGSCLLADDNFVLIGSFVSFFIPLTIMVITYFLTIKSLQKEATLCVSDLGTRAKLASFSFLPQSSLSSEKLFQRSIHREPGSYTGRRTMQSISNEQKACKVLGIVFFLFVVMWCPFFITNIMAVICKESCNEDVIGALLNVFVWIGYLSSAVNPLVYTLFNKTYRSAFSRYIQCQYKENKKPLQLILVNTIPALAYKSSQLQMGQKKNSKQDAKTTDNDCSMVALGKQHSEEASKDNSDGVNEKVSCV
Description: as §1
CHO-K1 cells stably transfected with a plasmid encoding the human serotonin 5-HT2A receptor were used to prepare membranes in modified Tris-HCl pH 7.7 buffer using standard techniques. […] Non-specific binding was estimated in the presence of 1 μM mianserin. […] See Bonhaus, D. W. et al. “The pharmacology and distribution of human 5-hydroxytryptamine2B (5-HT2B) receptor gene products: comparison with 5-HT2A and 5-HT2C receptors” Brit. J. Pharmacol. 115: 622–628, 1995; and Saucier, C and Albert, P. R. “Identification of an endogenous 5-hydroxytryptamine2A receptor in NIH-3T3 cells: agonist-induced down-regulation involves decreases in receptor RNA and number” J. Neurochem. 68: 1998–2011, 1997.
as §2

[5] = target: T5, human serotonin 5-HT2B receptor (Homo sapiens, UniProt P41595); assay: Radioligand binding assay, human 5-HT2B receptors ([3H]LSD)
T5 construct: expressed in transfected cells; host or cells: CHO-K1
T5 sequence (P41595 whole entry): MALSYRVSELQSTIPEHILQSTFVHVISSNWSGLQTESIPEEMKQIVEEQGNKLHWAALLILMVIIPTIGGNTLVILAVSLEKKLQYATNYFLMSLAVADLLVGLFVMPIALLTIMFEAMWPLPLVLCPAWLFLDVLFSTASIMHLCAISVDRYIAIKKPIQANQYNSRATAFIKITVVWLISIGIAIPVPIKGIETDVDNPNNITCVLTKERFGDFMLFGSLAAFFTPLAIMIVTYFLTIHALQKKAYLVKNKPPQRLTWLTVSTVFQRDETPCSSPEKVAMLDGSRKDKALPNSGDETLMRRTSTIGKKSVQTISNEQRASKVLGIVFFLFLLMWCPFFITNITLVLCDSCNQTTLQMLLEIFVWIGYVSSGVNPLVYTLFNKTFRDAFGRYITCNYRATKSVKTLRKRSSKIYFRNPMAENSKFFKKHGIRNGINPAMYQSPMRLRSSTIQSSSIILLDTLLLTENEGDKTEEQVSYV
Description: This assay measures binding of [^3H]LSD to human serotonin 5-HT2B receptors. CHO-K1 cells stably transfected with a plasmid encoding the human serotonin 5-HT2B receptor were used to prepare membranes in modified Tris-HCl pH 7.4 buffer using standard techniques. […] Non-specific binding was estimated in the presence of 10 μM serotonin. Membranes were filtered and washed 3 times and the filters were counted to determine [^3H]LSD specifically bound. See Bonhaus, D. W. et al. “The pharmacology and distribution of human 5-hydroxytryptamine2B (5-HT2B) receptor gene products: comparison with 5-HT2A and 5-HT2C receptors” Brit.
The human 5-HT2b screen was conducted according to Wolf, W. A. et al. J. Neurochem.

[6] = target: T6, human serotonin 5-HT2C receptor (Homo sapiens, UniProt P28335); assay: Radioligand binding assay, human 5-HT2C receptors ([3H]Mesulergine)
T6 construct: expressed in transfected cells; host or cells: CHO-K1
T6 sequence (P28335 33-458): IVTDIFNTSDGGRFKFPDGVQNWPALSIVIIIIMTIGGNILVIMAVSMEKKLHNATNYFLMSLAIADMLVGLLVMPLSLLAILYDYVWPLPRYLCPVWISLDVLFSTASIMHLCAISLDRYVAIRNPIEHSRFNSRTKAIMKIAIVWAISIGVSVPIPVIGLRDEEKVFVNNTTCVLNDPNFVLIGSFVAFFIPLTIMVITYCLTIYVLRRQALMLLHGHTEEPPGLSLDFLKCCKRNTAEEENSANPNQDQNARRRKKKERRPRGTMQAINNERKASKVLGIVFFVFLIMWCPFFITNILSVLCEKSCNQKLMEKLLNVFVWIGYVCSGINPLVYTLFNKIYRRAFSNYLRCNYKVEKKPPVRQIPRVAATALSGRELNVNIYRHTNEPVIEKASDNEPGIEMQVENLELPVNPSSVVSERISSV
Description: as §1
CHO-K1 cells stably transfected with a plasmid encoding the human serotonin 5-HT2C receptor were used to prepare membranes in modified Tris-HCl pH 7.7 buffer using standard techniques. […] Non-specific binding was estimated in the presence of 1 μM mianserin. […] See Wolf, W. A. and Schutz, J. S. “The serotonin 5-HT2C receptor is a prominent serotonin receptor in basal ganglia: evidence from functional studies on serotonin-mediated phosphoinositide hydrolysis” J. Neurochem. 69: 1449–1458, 1997.
as §2

[7] = human, Example 100 table, read-out: IC50 (nM) 5-HT6
[8] = human, Example 100 table, read-out: IC50 (nM) D3
[9] = human 5-HT2a, Example 16 table, read-out: IC50 (nM) 5-HT2a
[10] = human 5-HT2b, Example 16 table, read-out: IC50 (nM) 5-HT2b
[11] = human 5-HT2c, Example 16 table, read-out: IC50 (nM) 5-HT2c
[12] = human 5-HT6, Example 16 table, read-out: IC50 (nM) 5-HT6
[13] = Example 20 table, read-out: IC50 (nM) Against Human D3 Receptors

Row | IC50 [4, 9] [nM] | IC50 [5, 10] [nM] | IC50 [6, 11] [nM] | IC50 [1, 12] [nM] | IC50 [2, 13] [nM] | Structure (SMILES) | also measured
1 | < 1000 | < 1000 | < 1000 | < 1000 | > 1000 | Clc1ccc(C2(c3csc(C4CCNCC4)n3)CCC2)cc1 [Compound 30, 4-{4-[1-(4-chlorophenyl)cyclobutyl]thiazol-2-yl}-piperidine] | 
2 | > 1000 | < 1000 | < 1000 | < 1000 | < 1000 | CN1CCC(c2nc(C3(c4ccc(Cl)cc4)CCC3)cs2)CC1 [Compound 31] | 
3 | < 1000 | < 10 | < 100 | < 1000 | < 1000 | CN1CCN(c2nc(Cc3csc4ccc(Cl)cc34)cs2)CC1 [Compound 33] | 
4 | > 1000 | > 1000 | > 1000 | < 1000 | > 1000 | Clc1cccc(C2(c3csc(C4CCCNC4)n3)CCOCC2)c1 (stereo not shown) [Compound 38] | 
5 | < 1000 | < 1000 | < 1000 | < 1000 | > 1000 | Clc1ccc(C2(c3nc(N4CCNCC4)sc3Cl)CCOCC2)cc1 [Compound 39] | 

Second part, the compound before the results:

Row | Structure (SMILES) | IC50 [4, 9] [nM] | IC50 [5, 10] [nM] | IC50 [6, 11] [nM] | IC50 [1, 12] [nM] | IC50 [2, 13] [nM] | also measured
6 | CN1CCCC1CCNc1nc(C2(c3ccc(Cl)cc3)CCOCC2)cs1 (racemic) [Compound 125, {4-[4-(4-chlorophenyl)-tetrahydropyran-4-yl]-thiazol-2-yl}-[2-(1-methyl-pyrrolidin-2-yl)-ethyl]-amine] |  |  |  |  |  | IC50 [1, 7]: > 1000 nM; IC50 [2, 8]: > 1000 nM; IC50 [3]: > 1000 nM
7 | CN1CCN(c2nc(C3(c4ccc(Cl)cc4)CCCCC3)cs2)CC1 [Compound 34] | > 1000 | < 100 | < 100 | < 1000 | < 1000 | 
8 | CN1CCN(c2nc(C3(c4ccc(C(F)(F)F)cc4)CCOCC3)cs2)CC1 [Compound 43] | > 1000 | > 1000 | > 1000 | < 1000 | < 1000 | 
9 | CN1CCN(c2nc(C3(c4ccc(F)cc4)CCOCC3)cs2)CC1 [Compound 47] |  |  |  |  |  | IC50 ([4]; IC50 (nM) 5-HT2a, human 5-HT2a, Example 16 table): > 1000 nM; pIC50 [5]: < 6.00; IC50 ([6]; IC50 (nM) 5-HT2c, human 5-HT2c, Example 16 table): > 1000 nM; IC50 ([1]; IC50 (nM) 5-HT6, human 5-HT6, Example 16 table): < 1000 nM; IC50 ([2]; IC50 (nM) Against Human D3 Receptors, Example 20 table): > 1000 nM
10 | COc1ccc(C2(c3csc(N4CCN(C)CC4)n3)CCOCC2)cc1 [Compound 51] | > 1000 | > 1000 | > 1000 | < 1000 | > 1000 | 
11 | CN1CCN(c2nc(C3(c4ccc(OC(F)(F)F)cc4)CCOCC3)cs2)CC1 [Compound 55] | < 1000 | > 1000 | < 1000 | > 1000 | < 1000 | 
12 | COc1cccc(C2(c3csc(N4CCN(C)CC4)n3)CCOCC2)c1 [Compound 67] |  |  |  |  |  | IC50 ([4]; human, Example 100 table, read-out: IC50 (nM) 5-HT2A): > 1000 nM; IC50 ([5]; human, Example 100 table, read-out: IC50 (nM) 5-HT2B): > 1000 nM; IC50 ([6]; human, Example 100 table, read-out: IC50 (nM) 5-HT2C): > 1000 nM; IC50 [1, 7]: < 1000 nM; IC50 [2, 8]: > 1000 nM
